Laboratory results: patent US20200030278A1, “PHARMACEUTICAL COMPOSITIONS OF METAP-2 INHIBITORS” (Zafgen, Inc., priority 2017, published 2020)
≈ marks a conversion by molar mass, not a printed value. Like-named read-outs stand apart in the source and are kept apart here.

Columns and labels:
[1] = Protein binding in dog plasma (dialysis); format: in vitro ADME; settings: Dog Plasma, read-out: % Bound (Mean) (converted)
[2] = Protein binding in mouse plasma (dialysis); format: in vitro ADME; settings: read-out: % Bound (Mean) (converted)
[3] = Hepatocyte incubation, metabolic profile, rat; format: in vitro ADME
[4] = Toxicology study in the rat, s.c. Q3D for 28 days; format: in vivo, Sprague Dawley rats; settings: for NOAEL at 28 days / Cmax / AUC(0-t): Sprague Dawley, rat, in vivo, sc; for NOAEL at 28 days / Mortality/early euthanasia: s.c. Q3D, 4 weeks; for AUC(0-t): read-out: AUC0-t at NOAEL; for Mortality/early euthanasia: rats
Protocol: Male and female Sprague Dawley rats 9-10 weeks of age (Envigo RMS, Inc., Indianapolis, Ind. or Orient Bio Inc., Gyeonggi-do, South Korea) were individually housed at the testing facility. […] Animals were allocated to treatment groups based on body weight, and body weight and food consumption were recorded weekly. […] At necropsy, macroscopic pathologic findings were recorded, sperm motility and morphology were determined, selected organs were weighed, and selected tissues were collected for microscopic examination.

[5] = logD7.4 (physicochemical properties); settings: pH 7.4
[6] = Hepatocyte incubation, metabolic profile, dog; format: in vitro ADME
[7] = Pharmacokinetics after intravenous administration in rats; settings: in vivo, Rat, IV Bolus, 3 mg/kg
Protocol: (§1) Animal experiments were performed in accordance with the Guide for the Care and Use of Laboratory Animals as adopted and promulgated by the U.S. National Institutes of Health or local equivalent and were approved by the Institution's Animal Care and Use Committee or local equivalent. Unless described otherwise, animals (mouse, rat, and dog studies) were maintained under standard conditions (12-hour light/dark cycle and approximately 21±4° C. and 55±15% relative humidity), and food (Rodent pellet chow [Research Diets, Brunswick N.J., or similar] or canine pellet [Certified Dog Diet 2021C, Harlan Teklad Diets, Madison, Wis.] or canned [i.e., Cesar® Mars Petcare, Victoria, Australia]) and water were available ad libitum. Unless described otherwise, drug formulations were administered s.c. daily (efficacy studies) or every 3 days (Q3D; safety studies).

[8] = Pharmacokinetics after subcutaneous administration in humans; format: in vivo, Human; settings: Human, SC, 2 mg
Excerpt: (§2) Assessment of differences in pharmacokinetics following subcutaneous administration reflect both differences in the pharmacokinetic properties of the compounds and differences in pharmaceutical factors that affect absorption of the formulations from the injection sites.

[9] = Protein binding in rat plasma (dialysis); format: in vitro ADME; settings: Rat Plasma, read-out: % Bound (Mean) (converted)
[10] = clinical trials in patients with obesity, PWS, or type 2 diabetes; cited from earlier work
[11] = Pharmacokinetic study in dogs, single s.c. injection (Example 3); settings: both, beagle, dog, plasma, sc, 0.6 mg/kg
Protocol: Male and female beagle dogs of 9 to 11 months of age for PK characterization were individually housed at the testing facility Approximately 325 g of pelleted food was provided daily. […] Animals were observed twice daily for signs of ill health, morbidity, mortality, injury, and viability, and detailed clinical observations were conducted daily (including urine/fecal examination and hands-on examination). Food was weighed daily, and body weights were recorded at least weekly.
Samples were collected in tubes containing lithium heparin and processed for plasma by centrifugation (10 minutes at 3000 rpm). Supernatant was removed and stored frozen (−70° C.) until processed (BASi, West Lafayette, Ind.). Plasma drug concentration data were used to calculate PK parameters for individual concentration data using noncompartmental PK methods in Watson™ version 7.3.0.01 (Thermo Fisher Scientific, Inc., Waltham, Mass.).

[12] = Duration of plasma exposure after subcutaneous dosing, summary over species; format: in vivo, rat, dog, rabbit, human
[13] = Hepatocyte incubation, metabolic profile, human; format: in vitro ADME
[14] = Protein binding in human plasma (dialysis); format: in vitro ADME; settings: Human Plasma, 120 nM; read-out: % Bound (Mean) (converted)
Solubility (pH 7) = format: physicochemical; settings: pH 7, aqueous buffer
[15] = Pharmacokinetics after subcutaneous administration in dogs; format: in vivo; settings: beagle, plasma, Dog, SC, 0.6 mg/kg
Protocol: as §1, §2

[16] = Pharmacokinetics after subcutaneous administration in rabbits; format: in vivo, Rabbit
Excerpt: as §2

[17] = Pharmacokinetics after intravenous administration in dogs; settings: in vivo, Dog, IV Bolus, 0.142 mg/kg
Protocol: as §1

[18] = Pharmacokinetics after subcutaneous administration in rats; format: in vivo; settings: plasma; Rat, SC, 6 mg/kg
Protocol: as §1, §2

[19] = pKa (physicochemical properties)
[20] = female, 2 mg/kg, Day 1, female rats, NOAEL 2 mg/kg
[21] = female, 2 mg/kg, Day 31, female rats, NOAEL 2 mg/kg
[22] = male, 0.6 mg/kg, Day 1, male rats, NOAEL 0.6 mg/kg
[23] = male, 0.6 mg/kg, Day 31, male rats, NOAEL 0.6 mg/kg

`CO[C@@H]1[C@H](OC(=O)/C=C/c2ccc(OCCN(C)C)cc2)CC[C@]2(CO2)[C@H]1[C@@]1(C)O[C@@H]1CC=C(C)C` [beloranib, reference compound] gave a fraction unbound at 480 nM ([1]; 480 nM) of 0.045, a fraction unbound at 1000 nM ([1]; 1000 nM) of 0.059 and a fraction unbound at 60 nM ([2]; 60 nM) of 0.0181. The fraction unbound at 120 nM ([2]; 120 nM) was 0.0191, the fraction unbound at 240 nM ([2]; 240 nM) was 0.0259 and the fraction unbound at 480 nM ([2]; 480 nM) was 0.0222. The fraction unbound at 1000 nM ([2]; 1000 nM) was 0.0212, the fraction unbound ([2]; All concentrations) was 0.0213 and the “metabolic profile / predominant pathway in hepatocytes” value [3] was “glutathione (GSH) conjugation pathways being predominant”. It also gave an NOAEL at 28 days ([4]; female rats, read-out: NOAEL (F)) of 2 mg/kg, an NOAEL at 28 days ([4]; male rats, read-out: NOAEL) of 0.6 mg/kg and a Cmax [4, 20] of 28.5 ng/mL. It also gave an AUC(0-t) [4, 20] of 96.9 ng·h/mL, a Cmax [4, 21] of 19.2 ng/mL and an AUC(0-t) [4, 21] of 56.7 ng·h/mL. It also gave a Cmax [4, 22] of 19.2 ng/mL, an AUC(0-t) [4, 22] of 36.8 ng·h/mL and a Cmax [4, 23] of 8.17 ng/mL. The AUC(0-t) [4, 23] was 29 ng·h/mL, the Mortality/early euthanasia [4] was “mortality was noted by Days 16-24” and the Mortality/early euthanasia ([4]; listed as Beloranib) was 4/15 males in the 6 mg/kg dose. The logD7.4 [5] was 2.72, the “metabolic profile / predominant pathway in hepatocytes” value [6] was “glutathione (GSH) conjugation pathways being predominant” and the clearance [7] was 113 mL/min/kg. The half-life [7] was 63 ± 13.8 min, the Vd ([7]; read-out: Vdss) was 5.08 ± 0.29 L/kg and the kel [8] was 0.0885 ± 0.0266 h⁻¹. For the same compound, the AUC(0-inf) ([8]; plasma) was 5.44 ± 1.81 ng·h/mL, the half-life ([8]; plasma) was 506 ± 149 min and the Cmax ([8]; plasma, read-out: Cmax) was 1 ± 1.1 ng/mL. The Tmax ([8]; plasma, read-out: Tmax) was 1.58 ± 1.28 h, the fraction unbound at 60 nM ([9]; 60 nM) was 0.0285 and the fraction unbound at 120 nM ([9]; 120 nM) was 0.055. The fraction unbound at 240 nM ([9]; 240 nM) was 0.0415, the fraction unbound at 480 nM ([9]; 480 nM) was 0.0326 and the fraction unbound at 1000 nM ([9]; 1000 nM) was 0.0434. For the same compound, the fraction unbound ([9]; All concentrations) was 0.0402, the “adverse events (AEs)” value [10] was “venous thromboembolism” and the half-life [11] was 558 min. The “interval between doses with plasma concentrations at background / minimal exposure” value ([12]; dosing once every 3 days in animals and twice a week in humans) was “approximately 48 hours”, the “plasma concentration at 24 hours after dosing” value ([12]; subcutaneous, rat, dog, and human) was “quantifiable” and the “metabolic profile / predominant pathway in hepatocytes” value [13] was “glutathione (GSH) conjugation pathways being predominant”. The fraction unbound at 120 nM [14] was 0.0544, the solubility (Solubility (pH 7)) was 300 µg/mL (≈ 600 µM) and the AUC(0-t) [15] was 182 ± 73 ng·h/mL. For the same compound, the Cmax [15] was 16.6 ± 12.3 ng/mL, the Tmax [15] was 3.5 ± 1 h and the half-life ([15]; N = 1) was 470 min. For the same compound, the AUC(0-t) ([16]; plasma, Rabbit, SC, 1 mg/kg) was 222 ± 9 ng·h/mL, the Cmax ([16]; plasma, Rabbit, SC, 1 mg/kg) was 52 ± 4.1 ng/mL and the Tmax ([16]; plasma, Rabbit, SC, 1 mg/kg) was 1.7 ± 0.6 h. For the same compound, the half-life ([16]; plasma, Rabbit, SC, 1 mg/kg) was 102 ± 18 min, the “plasma concentration at 8 hours after dosing” value ([16]; rabbit, subcutaneous) was “still quantifiable” and the clearance [17] was 33.3 mL/min/kg. The half-life [17] was 174 ± 17.4 min, the Vd ([17]; read-out: Vdss) was 5.07 ± 0.23 L/kg and the AUC(0-t) [18] was 412 ng·h/mL. It also gave a Cmax [18] of 270 ng/mL, a Tmax [18] of 30 min and a half-life [18] of 108 min. The pKa [19] was 9.4.
